The subject of series [1] is Candida albicans. The series can be described thus: Antifungal activity against Candida albicans after 24 hrs by microbroth dilution method. The series is classed as functional. (In broth dilution the organism is exposed to a series of concentrations in liquid medium.)
Series [2] concerns Cryptococcus neoformans. The series can be described thus: Antifungal activity against Cryptococcus neoformans NR-41294 after 24 hrs by microbroth dilution method. The format is functional. The settings on record: NR-41294, 24 h.
In series [3] the test system is Candida albicans. Briefly: Antifungal activity against Candida albicans NR-29448 after 24 hrs by microbroth dilution method. The format is functional. As to conditions: NR-29448, 24 h.
The test system of series [4] is Cryptococcus neoformans. Briefly: Antifungal activity against Cryptococcus neoformans NR-41299 after 24 hrs by microbroth dilution method. The format is functional. The settings on record: NR-41299, 24 h.
The subject of series [5] is Cryptococcus neoformans. Briefly: Antifungal activity against Cryptococcus neoformans NR-41292 after 24 hrs by microbroth dilution method. The settings on record: NR-41292, 24 h. The series is classed as functional.
Series [6] relates to Candida albicans. Briefly: Antifungal activity against Candida albicans NR-29444 after 24 hrs by microbroth dilution method. The format is functional. As to conditions: NR-29444, 24 h.
Series [7] concerns Candida albicans. The series can be described thus: Antifungal activity against Candida albicans NR-29449 after 24 hrs by microbroth dilution method. The settings on record: NR-29449, 24 h. The series is classed as functional.
In series [8] the test system is Candida albicans. The series can be described thus: Antifungal activity against Candida albicans NR-29440 after 24 hrs by microbroth dilution method. The series is classed as functional. The settings on record: NR-29440, 24 h.
Series [9] has as its system Cryptococcus neoformans. The series can be described thus: Antifungal activity against Cryptococcus neoformans NR-41298 after 24 hrs by microbroth dilution method. The series is classed as functional. As to conditions: NR-41298, 24 h.
The test system of series [10] is Cryptococcus neoformans. The series can be described thus: Antifungal activity against Cryptococcus neoformans NR-41296 after 24 hrs by microbroth dilution method. The format is functional. The settings on record: NR-41296, 24 h.
A further series deals with Candida parapsilosis. Briefly: Antifungal activity against Candida parapsilosis ATCC 22019 after 24 hrs by microbroth dilution method. The settings on record: Lodderomyces parapsilosis, ATCC 22019, 24 h. The series is classed as functional.
Series [11] deals with Candida albicans. The series can be described thus: Antifungal activity against Candida albicans NR-29441 after 24 hrs by microbroth dilution method. The series is classed as functional. As to conditions: NR-29441, 24 h.
Series [12] has as its system HCT-116. The series can be described thus: Cytotoxicity against human HCT116 cells assessed as reduction in cell viability up to 4 ug/ml after 24 hrs by MTS assay. The series is classed as cell-based. As to conditions: hct-116, 24 h. For orientation: Formazan colour is commonly taken as a measure of viable cells.
Series [13] concerns Candida albicans. The series can be described thus: Antifungal activity against Candida albicans NR-29434 after 24 hrs by microbroth dilution method. The series is classed as functional. As to conditions: NR-29434, 24 h.
Series [14] deals with Cryptococcus neoformans. Briefly: Antifungal activity against Cryptococcus neoformans NR-41295 after 24 hrs by microbroth dilution method. As to conditions: NR-41295, 24 h. The format is functional.
Series [15] relates to Candida albicans. The series can be described thus: Antifungal activity against Candida albicans ATCC 10231 after 24 hrs by microbroth dilution method. As to conditions: ATCC 10231, 24 h. The series is classed as functional.
Series [16] concerns Candida albicans. The series can be described thus: Antifungal activity against Candida albicans NR-29442 after 24 hrs by microbroth dilution method. The format is functional. As to conditions: NR-29442, 24 h.
Series [17] deals with Candida albicans. The series can be described thus: Antibiofilm activity against 48 hrs old pre-formed biofilms of Candida albicans ATCC 10231 at 16 ug/ml after 24 hrs by MTS assay relative to control. The format is functional.
Series [18] relates to Cryptococcus neoformans. Briefly: Antifungal activity against Cryptococcus neoformans NR-41291 after 24 hrs by microbroth dilution method. The series is classed as functional. As to conditions: NR-41291, 24 h.
In series [19] the test system is Candida albicans. Briefly: Antifungal activity against Candida albicans NR-29435 after 24 hrs by microbroth dilution method. As to conditions: NR-29435, 24 h. The series is classed as functional.
In series [20] the test system is Candida albicans. The series can be described thus: Antifungal activity against Candida albicans […] after 24 hrs by microbroth dilution method. The format is functional.
For series [21], the system named is HCT-116. Briefly: Cytotoxicity against human HCT116 cells assessed as reduction in cell viability at 32 to 128 ug/ml after 24 hrs by MTS assay. The series is classed as cell-based. As to conditions: hct-116, 24 h.
Series [22] has as its system Candida albicans. Briefly: Antifungal activity against Candida albicans NR-29367 after 24 hrs by microbroth dilution method. As to conditions: NR-29367, 24 h. The series is classed as functional.
The subject of series [23] is Cryptococcus neoformans. The series can be described thus: Antifungal activity against Cryptococcus neoformans NR-41297 after 24 hrs by microbroth dilution method. The settings on record: NR-41297, 24 h. The format is functional.
The subject of series [24] is Candida albicans. The series can be described thus: Antifungal activity against Candida albicans NR-29438 after 24 hrs by microbroth dilution method. The series is classed as functional. As to conditions: NR-29438, 24 h.
Series [25] concerns Candida albicans. The series can be described thus: Antibiofilm activity against 48 hrs old pre-formed biofilms of Candida albicans ATCC 10231 at 128 ug/ml after 24 hrs by MTS assay relative to control. The format is functional.
The test system of series [26] is Candida albicans. The series can be described thus: Antibiofilm activity against 48 hrs old pre-formed biofilms of Candida albicans ATCC 10231 at 32 ug/ml after 24 hrs by MTS assay relative to control. The format is functional.
Series [27] relates to Candida albicans. Briefly: Antifungal activity against Candida albicans NR-29437 after 24 hrs by microbroth dilution method. The format is functional. The settings on record: NR-29437, 24 h.
The subject of series [28] is Candida albicans. Briefly: Antifungal activity against Candida albicans NR-29439 after 24 hrs by microbroth dilution method. The format is functional. The settings on record: NR-29439, 24 h.
The subject of series [29] is Candida albicans. Briefly: Antifungal activity against Candida albicans NR-29366 after 24 hrs by microbroth dilution method. As to conditions: NR-29366, 24 h. The series is classed as functional.
For a further series, the system named is Nakaseomyces glabratus. The series can be described thus: Antifungal activity against Candida glabrata ATCC 90030 after 24 hrs by microbroth dilution method. The format is functional. The settings on record: ATCC 90030, 24 h.
Series [30] deals with Candida albicans. The series can be described thus: Antifungal activity against Candida albicans NR-29446 after 24 hrs by microbroth dilution method. As to conditions: NR-29446, 24 h. The format is functional.

SMILES strings stand for the structures. Converted amounts (≈) assume the structure as drawn. Where only a bound is given, the exact number is not on record here.

By MIC is commonly meant the smallest concentration in the dilution series that meets the test's criterion for growth inhibition. A low value points to greater potency. In the series with Candida albicans [1], `COc1ccc2nc3c(cc2c1)Cn1c-3nc2ccccc21` had an MIC of 16 µg/mL (≈ 55.7 µM).
`Clc1cccc2cc3c(nc12)-c1nc2ccccc2n1C3`: in the series with Candida albicans [1], the MIC came out at 64 µg/mL (≈ 219 µM).
Compound `Brc1cccc2cc3c(nc12)-c1nc2ccccc2n1C3` came in with an MIC against Candida albicans [1] above 64 µg/mL.
The compound `Cc1ccc2cc3c(nc2c1)-c1nc2ccccc2n1C3` returned an MIC in the series on Candida albicans [1] of 32 µg/mL (≈ 118 µM).
Compound `COc1ccc2cc3c(nc2c1)-c1nc2ccccc2n1C3` gave an MIC in the series on Candida albicans [1] above 64 µg/mL.
`Cc1cccc2cc3c(nc12)-c1nc2ccccc2n1C3` had an MIC in the series on Candida albicans [1] of 16 µg/mL (≈ 59 µM).
Same read-out and setting: the result for `Cc1ccc2nc3c(cc2c1)Cn1c-3nc2ccccc21` reads 32 µg/mL (≈ 118 µM); that for `COc1cccc2cc3c(nc12)-c1nc2ccccc2n1C3`, 64 µg/mL (≈ 223 µM).
On to `c1ccc2nc3c(cc2c1)Cn1c-3nc2ccccc21`, for which the MIC against Cryptococcus neoformans [2] came to 1 µg/mL (≈ 3.89 µM); against Candida albicans [3], 0.25 µg/mL (≈ 0.972 µM); in the series with Cryptococcus neoformans [4] it was 2 µg/mL (≈ 7.77 µM); in the series with Cryptococcus neoformans [5], 0.5 µg/mL (≈ 1.94 µM); against Candida albicans [6], 0.25 µg/mL (≈ 0.972 µM); in the series with Candida albicans [7], 0.0625 µg/mL (≈ 0.243 µM). Also, the MIC against Candida albicans [8] came to 0.5 µg/mL (≈ 1.94 µM); against Cryptococcus neoformans [9], 2 µg/mL (≈ 7.77 µM); with Cryptococcus neoformans [10] it was 1 µg/mL (≈ 3.89 µM); in the series with Candida parapsilosis, 1 µg/mL (≈ 3.89 µM); against Candida albicans [11], 0.5 µg/mL (≈ 1.94 µM); in the series on Candida albicans [13], 0.25 µg/mL (≈ 0.972 µM). The MIC with Cryptococcus neoformans [14] was 2 µg/mL (≈ 7.77 µM); with Candida albicans [15], 0.5 µg/mL (≈ 1.94 µM); in the series with Candida albicans [16], 0.5 µg/mL (≈ 1.94 µM); in the series with Cryptococcus neoformans [18], 1 µg/mL (≈ 3.89 µM); against Candida albicans [19], 0.5 µg/mL (≈ 1.94 µM); with Candida albicans [20] it was 0.0625 µg/mL (≈ 0.243 µM). The MIC with Candida albicans [1] worked out at 0.5 µg/mL (≈ 1.94 µM); with Candida albicans [22], 0.5 µg/mL (≈ 1.94 µM); in the series on Cryptococcus neoformans [23], 0.5 µg/mL (≈ 1.94 µM); in the series on Candida albicans [24], 0.25 µg/mL (≈ 0.972 µM); against Candida albicans [27], 0.0625 µg/mL (≈ 0.243 µM); in the series with Candida albicans [28], 0.5 µg/mL (≈ 1.94 µM). The results for the MIC against Candida albicans [29], in the series with Nakaseomyces glabratus and against Candida albicans [30] were 0.5 µg/mL (≈ 1.94 µM), 1 µg/mL (≈ 3.89 µM) and 0.5 µg/mL (≈ 1.94 µM), respectively. The Activity entry is on record as “Non-Toxic” with HCT-116 [12]; 25% in the series on Candida albicans [17]; 25% with HCT-116 [21]; 60% in the series with Candida albicans [25]; 40% in the series with Candida albicans [26].
Consider `OC(Cn1cncn1)(Cn1cncn1)c1ccc(F)cc1F` [FLUCONAZOLE], for which the MIC against Cryptococcus neoformans [2] was 2 µg/mL (≈ 6.53 µM); against Candida albicans [3], above 64 µg/mL; with Cryptococcus neoformans [4], 2 µg/mL (≈ 6.53 µM); in the series on Cryptococcus neoformans [5], 1 µg/mL (≈ 3.27 µM); in the series with Candida albicans [6], 2 µg/mL (≈ 6.53 µM); in the series with Candida albicans [7], 0.5 µg/mL (≈ 1.63 µM). Also, the MIC in the series on Candida albicans [8] was 2 µg/mL (≈ 6.53 µM); in the series on Cryptococcus neoformans [9] it was 4 µg/mL (≈ 13.1 µM); against Cryptococcus neoformans [10], 1 µg/mL (≈ 3.27 µM); with Candida parapsilosis, 0.25 µg/mL (≈ 0.816 µM); against Candida albicans [11] it was 4 µg/mL (≈ 13.1 µM); against Candida albicans [13], 0.5 µg/mL (≈ 1.63 µM). Besides, the MIC in the series with Cryptococcus neoformans [14] is 2 µg/mL (≈ 6.53 µM); against Candida albicans [15], 1 µg/mL (≈ 3.27 µM); against Candida albicans [16], 16 µg/mL (≈ 52.2 µM); in the series on Cryptococcus neoformans [18], 1 µg/mL (≈ 3.27 µM); against Candida albicans [19], 0.25 µg/mL (≈ 0.816 µM); against Candida albicans [20], 2 µg/mL (≈ 6.53 µM). For the same compound, the MIC was above 64 µg/mL in the series on Candida albicans [22]; 0.5 µg/mL (≈ 1.63 µM) against Cryptococcus neoformans [23]; 0.5 µg/mL (≈ 1.63 µM) with Candida albicans [24]; 2 µg/mL (≈ 6.53 µM) in the series with Candida albicans [27]; above 64 µg/mL in the series with Candida albicans [28]; above 64 µg/mL in the series with Candida albicans [29]. Moreover, the MIC was 1 µg/mL (≈ 3.27 µM) with Nakaseomyces glabratus and above 64 µg/mL in the series on Candida albicans [30]. Further, the Activity with Candida albicans [17] worked out at 25%; in the series with Candida albicans [25], 40%.

For the origin of these results see ChEMBL document CHEMBL4422645, “Benzimidazole tethered pyrrolo[3,4-b]quinoline with broad-spectrum activity against fungal pathogens” (Bioorg Med Chem Lett, 2019).
